Data on 1 molecule can be found in ChEMBL document CHEMBL1158922, “Antineoplastic agents, 177. Isolation and structure of phyllanthostatin 6” (1990).

For this test, the system named is P388. Nature of the test: Cytotoxicity against mouse P388 cells. The conditions noted are these: read-out: ED50 (the source's name). Type of test: functional.

Values after ≈ are worked out from the molar mass of the structure shown.

Take `CC1CO[C@]2(CC1OC(=O)/C=C/c1ccccc1)OC1CC(C(=O)O[C@@H]3O[C@H](CO)[C@@H](O)[C@H](O)[C@H]3O[C@@H]3O[C@H](C)[C@@H](O)[C@H](O)[C@H]3O)CCC1[C@]21CO1` (stereo partly specified) [PHYLLANTHOSTATIN 6]: the EC50 is 0.35 µg/mL (≈ 0.475 µM).
